How the values were obtained:
GECFINDER-Phe3 = biological target: T1, GECFINDER-Phe3 (Aneurinibacillus migulanus, UniProt P0C061); experiment: Fluorescence dose-response of purified […]-Phe3 with phenylalanine in 100 mM Tris at pH 6.5, room temperature, 1 mM ATP, 2.5 mM MgCl2.; type: biochemical; details: n = 3
T1 construct: gene grsA; GrsA-PheA-PCP; cpEGFP inserted in hinge B, linkers VF-QS
T1 sequence (P0C061 1-617): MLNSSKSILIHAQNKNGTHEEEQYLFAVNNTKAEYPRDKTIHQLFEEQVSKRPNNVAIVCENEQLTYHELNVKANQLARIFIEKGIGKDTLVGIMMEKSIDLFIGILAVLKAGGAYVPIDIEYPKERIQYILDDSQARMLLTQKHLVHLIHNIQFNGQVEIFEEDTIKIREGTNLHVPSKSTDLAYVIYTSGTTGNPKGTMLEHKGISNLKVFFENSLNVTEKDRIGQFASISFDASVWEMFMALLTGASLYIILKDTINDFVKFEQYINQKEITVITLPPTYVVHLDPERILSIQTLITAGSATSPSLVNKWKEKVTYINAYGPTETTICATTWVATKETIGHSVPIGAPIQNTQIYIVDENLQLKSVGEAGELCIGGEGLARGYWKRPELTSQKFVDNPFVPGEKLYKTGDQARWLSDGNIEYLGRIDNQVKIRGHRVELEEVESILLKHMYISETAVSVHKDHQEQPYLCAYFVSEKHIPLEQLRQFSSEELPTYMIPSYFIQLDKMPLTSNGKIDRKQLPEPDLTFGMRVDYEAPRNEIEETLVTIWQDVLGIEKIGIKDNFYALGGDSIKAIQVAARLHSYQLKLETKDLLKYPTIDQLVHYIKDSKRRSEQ
Description: As cpEGFP is sensitive to pH, we conducted a dose-response curve and fluorescence intensity analysis of […]-Phe3 at varying pH levels. […] In addition, we expanded the range of ligand-binding domains (LBDs) applicable to […] and attempted optimization of insertion sites for cpEGFP with limited success. Please refer to Supplemental Note 1 for detailed information.
The study conducted dose–response curve, substrate specificity, and fluorescent spectrum analyses in 100-mM Tris buffer (pH = 7.5), while pH stability experiments were performed in 100-mM Tris buffer at three different pH values (6.5, 7.5, and 8.5) at room temperature. […] Fluorescent signals were detected using a Microplate Reader (Synergy H4, Bio Tek) at an excitation/emission wavelength of 460 nm/510 nm or 480 nm/510 nm. The dose-response curve was determined immediately after the addition of the analyte. The total duration of the measurement was 15 min, with readings taken at one-minute intervals. The dose-response curve was plotted using the fluorescence values obtained after achieving stability in the fluorescence signal. […] The thermal stability of […] was analyzed using the UNcle multifunctional protein stability analysis system. […] Absolute fluorescence quantum yields were measured using an absolute photoluminescence quantum yield spectrometer (FS5, Edinburgh). […]

GECFINDER-Tyr = biological target: T2, GECFINDER-Tyr (Aneurinibacillus migulanus, UniProt P0C061, W239S); experiment: Fluorescence dose-response of purified binding-pocket-engineered sensors (0.75 uM) in 100 mM Tris-HCl pH 7.5, room temperature, 1 mM ATP, 2.5 mM MgCl2, excitation 460 or 480 nm, emission 510 nm; logistic five-parameter fit.; type: biochemical; details: n = 3
T2 construct: gene grsA

With `N[C@@H](Cc1ccccc1)C(=O)O` [Phe, phenylalanine] the EC50 (GECFINDER-Phe3) was 2.03 µM and the EC50 (GECFINDER-Tyr) was 258 ± 37.3 µM.

From publication PMC10590383, “Repurposing conformational changes in ANL superfamily enzymes to rapidly generate biosensors for organic and amino acids” (Nature Communications, 2023)
